Source: PubChem BioAssay (NCI)
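Briefly, cells in 96-well plates were exposed to five compound concentrations for 48 h, and endpoints were estimated by linear interpolation. GI50 = concentration required for 50% inhibition of growth. TGI marks complete inhibition of growth.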

How the values were obtained:
Assay in all cases: growth of human tumour cells (NCI), 48 h
BT-549 breast = system: BT-549 breast
CAKI-1 renal = system: CAKI-1 renal
PC-3 prostate = system: PC-3 prostate
KM12 colon = system: KM12 colon
MALME-3M melanoma = system: MALME-3M melanoma
NCI-H226 lung = system: NCI-H226 lung
RXF 393 renal = system: RXF 393 renal
TK-10 renal = system: TK-10 renal
EKVX NSCLC = system: EKVX NSCLC
UACC-62 melanoma = system: UACC-62 melanoma
UO-31 renal = system: UO-31 renal
HOP-62 NSCLC = system: HOP-62 NSCLC
SF-539 CNS = system: SF-539 CNS
SF-295 CNS = system: SF-295 CNS
OVCAR-3 ovarian = system: OVCAR-3 ovarian
DU-145 prostate = system: DU-145 prostate
SN12C renal = system: SN12C renal
HL-60(TB) leukemia = system: HL-60(TB) leukemia
IGROV1 ovarian = system: IGROV1 ovarian
OVCAR-4 ovarian = system: OVCAR-4 ovarian
T-47D breast = system: T-47D breast
HOP-92 NSCLC = system: HOP-92 NSCLC
SK-MEL-5 melanoma = system: SK-MEL-5 melanoma
SNB-19 CNS = system: SNB-19 CNS
U251 CNS = system: U251 CNS
MOLT-4 leukemia = system: MOLT-4 leukemia
MDA-MB-468 breast = system: MDA-MB-468 breast
SW-620 colon = system: SW-620 colon
MDA-MB-435 = system: MDA-MB-435

SMILES: Cc1nc(Nc2ccccn2)sc1C(=O)CC(SCC(=O)Nc1ccc(Cl)cc1)c1ccccc1F (stereo not drawn)
- GI50 (BT-549 breast): 2.83 µM
- TGI (BT-549 breast): 9.85 µM
- GI50 (CAKI-1 renal): 2.71 µM
- TGI (CAKI-1 renal): 16.9 µM
- GI50 (PC-3 prostate): 4.04 µM
- TGI (PC-3 prostate): 93.6 µM
- GI50 (KM12 colon): 1.39 µM
- TGI (KM12 colon): 8.67 µM
- GI50 (MALME-3M melanoma): 4.91 µM
- TGI (MALME-3M melanoma): 19.6 µM
- GI50 (NCI-H226 lung): 7.91 µM
- TGI (NCI-H226 lung): 31.2 µM
- GI50 (RXF 393 renal): 2.32 µM
- TGI (RXF 393 renal): 8.73 µM
- GI50 (TK-10 renal): 4.79 µM
- TGI (TK-10 renal): 16.8 µM
- GI50 (EKVX NSCLC): 3.15 µM
- TGI (EKVX NSCLC): 13.4 µM
- GI50 (UACC-62 melanoma): 2.24 µM
- TGI (UACC-62 melanoma): 10.3 µM
- GI50 (UO-31 renal): 3.44 µM
- TGI (UO-31 renal): 16.4 µM
- GI50 (HOP-62 NSCLC): 2.79 µM
- TGI (HOP-62 NSCLC): 12.3 µM
- GI50 (SF-539 CNS): 2.02 µM
- TGI (SF-539 CNS): 4.41 µM
- GI50 (SF-295 CNS): 2.77 µM
- TGI (SF-295 CNS): 12.3 µM
- GI50 (OVCAR-3 ovarian): 1.53 µM
- TGI (OVCAR-3 ovarian): 11.6 µM
- GI50 (DU-145 prostate): 3.34 µM
- TGI (DU-145 prostate): 13.2 µM
- GI50 (SN12C renal): 2.72 µM
- TGI (SN12C renal): 10.5 µM
- GI50 (HL-60(TB) leukemia): > 100 µM
- TGI (HL-60(TB) leukemia): > 100 µM
- GI50 (IGROV1 ovarian): 3.87 µM
- TGI (IGROV1 ovarian): 20.7 µM
- GI50 (OVCAR-4 ovarian): 11.4 µM
- TGI (OVCAR-4 ovarian): 71.4 µM
- GI50 (T-47D breast): 2.28 µM
- TGI (T-47D breast): 9.79 µM
- GI50 (HOP-92 NSCLC): 4.94 µM
- TGI (HOP-92 NSCLC): 25.9 µM
- GI50 (SK-MEL-5 melanoma): 2.2 µM
- TGI (SK-MEL-5 melanoma): 5.86 µM
- GI50 (SNB-19 CNS): 3.28 µM
- TGI (SNB-19 CNS): 14.4 µM
- GI50 (U251 CNS): 2.22 µM
- TGI (U251 CNS): 6.41 µM
- GI50 (MOLT-4 leukemia): > 100 µM
- TGI (MOLT-4 leukemia): > 100 µM
- GI50 (MDA-MB-468 breast): 1.58 µM
- TGI (MDA-MB-468 breast): 5.05 µM
- GI50 (SW-620 colon): 2.56 µM
- TGI (SW-620 colon): 11.7 µM
- GI50 (MDA-MB-435): 1.02 µM
- TGI (MDA-MB-435): 2.78 µM
